Results from patent publication US20250108036A1, “COMPOSITIONS FOR REMOVING SENESCENT CELLS AND USES THEREOF” (LIFECEUTIX CO., LTD., priority 2021, published 2025).

Assays:
Type in all cases: cell-based, human
HMGN1 [1] = experiment: HMGN1 ELISA in culture medium of A549 cancer cells (Example 12, Table 66); settings: Homo sapiens, A549, doxorubicin-induced senescent A549 cells, ELISA, DMSO = 100, read-out: HMGN1 (amount of HMGN1 secreted in the cell culture); for activity at 90 µM: test compound 90 μM; for activity at 30 µM: test compound 30 μM
HMGN1 [2] = experiment: HMGN1 ELISA in culture medium of foreskin cells (Examples 10, 11; Tables 62, 63, 64); settings: Homo sapiens, doxorubicin-treated foreskin cells, DMSO = 100; for activity at 90 µM: 90 μM test compound; for activity at 30 µM: 30 μM test compound, read-out: HMGN1
[3] = test system: foreskin cells in which senescence was induced by doxorubicin; experiment: CellTiter-Glo cell viability of doxorubicin-induced senescent foreskin cells (Examples 1-2, 10, 11, 13; Tables 4, 63, 65); settings: Homo sapiens, 72 h, doxorubicin-induced senescent foreskin cells, CellTiter-Glo, 0 μM = 100, read-out: Survival (%); for viability at 1.1 µM: 1.1 μM test compound; for viability at 10 µM: 10 μM test compound; for viability at 30 µM: 30 μM test compound; for viability at 90 µM: 90 μM test compound; for viability at […]: […] test compound
Procedure: After 3 days, cell viability was measured using CellTiter-Glo Luminescent Cell Viability Assay (Promega) or light microscopy.

A549 = experiment: CellTiter-Glo cell viability of senescent A549 cancer cells (Example 12, Table 67); settings: Homo sapiens, A549, doxorubicin-induced senescent A549 cancer cells, CellTiter-Glo, read-out: Survival (%); for viability at 1.1 µM: 1.1 μM test compound; for viability at 10 µM: 10 μM test compound; for viability at 30 µM: 30 μM test compound; for viability at 90 µM: 90 μM test compound

Compound	activity at 90 µM (HMGN1 [1])	activity at 90 µM (HMGN1 [2])	viability at 1.1 µM [3]	viability at 10 µM [3]	viability at 30 µM [3]	viability at 90 µM [3]	viability at […] [3]	viability at 1.1 µM (A549)	viability at 10 µM (A549)	viability at 30 µM (A549)	viability at 90 µM (A549)	activity at 30 µM (HMGN1 [1])	activity at 30 µM (HMGN1 [2])	activity at 270 µM (HMGN1 [1]; test compound 270 μM)	activity at 270 µM (HMGN1 [2]; 270 μM test compound)	viability at 270 µM ([3]; 270 μM test compound)	viability at 270 µM (A549; 270 μM test compound)
CC1=CCC(c2cc(C(=O)C3CCC(c4ccc(C#N)cc4)CC3)c(C)cc2C2CCC2)=C1 (stereo not shown) [LX-305]	227%	199%	101%	91%	78%	23.2%	97.2%	99.2%	63.1%	41%	13.3%						
Cc1onc(C(=O)N2CCN(C(c3ccc(Cl)cc3)c3ccc(OCc4cn(CCNc5cccc6c5C(=O)N(C5CCC(=O)NC5=O)C6=O)nn4)cc3)CC2)c1[N+](=O)[O-] (stereo not shown) [LX-437, 4-((2-(4-((4-((4-chlorophenyl)(4-(5-methyl-4-nitroisooxazol-3-carbonyl)piperazin-1-yl)methyl)phenoxy)methyl)-1H-1,2,3-triazol-1-yl)ethyl)amino)-2-(2,6-dioxopiperidin-3-yl)isoindolin-1,3-dione]			86.2%				10.9%	93.6%				301%	309%				
C[C@@H]1C(=O)C(C#N)=C[C@]2(c3ccccc3)c3c(c(-c4cccnc4)nn3C)CC[C@@H]12 [LX-2407, (5aS,6S,9aR)-1,6-dimethyl-7-oxo-9a-phenyl-3-(pyridin-3-yl)-4,5,5a,6,7,9a-hexahydro-1H-benzo[g]indazole-8-carbonitrile]			15.4%				5.9%	89.6%	41.8%			316%	308%				
CC1(C)C(=O)C(C#N)=C[C@]2(C)C3=CC(=O)[C@@H]4[C@@H]5C[C@@](C)(C(=O)NCCc6c[nH]c7ccccc67)CC[C@]5(C)CC[C@@]4(C)[C@]3(C)CCC12 (stereo partly shown) [LX-2517, Soloxolone tryptamide]			0.6%					8.4%				318%	298%				
C=C(C)[C@@H]1CC[C@]2(C(=O)NCC)CC[C@]3(C)[C@H](CCC4[C@@]5(C)C=C(C#N)C(=O)C(C)(C)[C@@H]5CC[C@]43C)[C@@H]12 (stereo partly shown) [LX-2311]			39.5%				4.1%	97.5%	8.9%			276%	271%				
CC1(C)CC[C@]2(c3nc(CO)no3)CC[C@]3(C)[C@H](C(=O)C=C4[C@@]5(C)C=C(C#N)C(=O)C(C)(C)[C@@H]5CC[C@]43C)[C@@H]2C1 [LX-2508]			75.6%				28.2%	93.5%	43.9%			283%	313%				
Cc1onc(C(=O)N2CCN(C(c3ccc(Cl)cc3)c3ccc(OCc4cn(CCOCCOCCOCCOCCNc5cccc6c5C(=O)N(C5CCC(=O)NC5=O)C6=O)nn4)cc3)CC2)c1[N+](=O)[O-] (stereo not shown) [LX-436, 4-((14-(4-((4-((4-chlorophenyl)(4-(5-methyl-4-nitroisooxazol-3-carbonyl)piperazin-1-yl)methyl)phenoxy)methyl)-1H-1,2,3-triazol-1-yl)-3,6,9,12-tetraoxatetradecyl)amino)-2-(2,6-dioxopiperidin-3-yl)isoindolin-1,3-dione]			84.4%				3.8%	99.5%				278%	299%				
O=C(O)CCCCC(CCSCc1ccccc1)SCc1ccccc1 (stereo not shown) [LX-3109, Devimistat, reference compound]			97.2%	88.7%	74%	48.7%	96%	108%	85.7%	68.2%	43.4%			247%	232%	19.7%	0.1%
CN(C)CCCN1c2ccccc2CCc2ccc(Cl)cc21 [LX-3101, Clomipramine, reference compound]			93.3%	11.7%			75.8%	89.2%	7.1%			334%	284%				
C[C@@H]1Cc2c([nH]c3ccccc23)[C@H](c2ccc(F)cc2)[C@H]1C#N [LX-418]			5.1%					17.7%				286%	284%				
CCCCC/C=C\C/C=C\C/C=C\C/C=C\CCCC(=O)O [LX-2701, Arachidonic acid]	179%	194%	103%	76.8%	48.3%	29.4%	97.3%	102%	97.1%	93.8%	42.9%						
CCN(CC)C(=S)SSC(=S)N(CC)CC [LX-1601, Disulfiram, reference compound]	257%		93.7%	95.6%	61.4%		90%	114%	118%	74.2%	3.1%		154%				
Cc1c(O)ccc2c1OCC(c1ccc(O)cc1)C2c1ccc(O)cc1 (stereo not shown) [LX-1605]			83.4%	43.7%	11.3%		63.8%	91.7%	41.8%	6.4%		338%	284%				
C=C(CC)C(=O)c1ccc(OCC(=O)O)c(Cl)c1Cl [LX-2603, Ethacrynic acid, reference compound]	245%	218%	100%	95.8%	52.6%	37.8%	103%	98.7%	89.1%	41.5%	1.8%						
COC(=O)[C@@]1(C)CC[C@]2(C)CC[C@]3(C)[C@H](C(=O)C=C4[C@@]5(C)C=C(C#N)C(=O)C(C)(C)C5CC[C@]43C)[C@@H]2C1 (stereo partly shown) [LX-2513, Soloxolone methyl]			49.6%				2.6%	105%	6.9%			311%	325%				
C=C(CN(C)C)C(=O)c1cc(C)ccc1C [LX-921]	175%		99.6%	89.1%	15.7%		89.2%	99.5%	91.2%	90.9%	39.7%		311%				
CNC(=O)CC[C@]12CCC(C)(C)C[C@H]1[C@H]1C(=O)C=C3[C@@]4(C)C=C(C#N)C(=O)C(C)(C)[C@@H]4CC[C@@]3(C)[C@]1(C)CC2 [LX-2403]			38.1%				15.2%	100%	3.2%			267%	319%				
